Measurements reported in patent US8859571B2, “Quinazoline compounds” (GlaxoSmithKline LLC, priority 2009, dated 2014).
Where “and” joins values, the source holds several entries; their conditions need not be identical. Equal entries are not always repeated. Structures can show the parent of a compound that is named as a salt.

Biological target: T1, Full length human TNNI3K (hTNNI3K) (Homo sapiens, UniProt Q59H18)
T1 construct: His-MBP-TEV-Full length human TNNI3K (hTNNI3K); His (N); MBP (N); TEV cleavage site (N); made in house; host or cells: baculovirus system (printed 'Baculokinase system')
T1 sequence (Q59H18 1-835): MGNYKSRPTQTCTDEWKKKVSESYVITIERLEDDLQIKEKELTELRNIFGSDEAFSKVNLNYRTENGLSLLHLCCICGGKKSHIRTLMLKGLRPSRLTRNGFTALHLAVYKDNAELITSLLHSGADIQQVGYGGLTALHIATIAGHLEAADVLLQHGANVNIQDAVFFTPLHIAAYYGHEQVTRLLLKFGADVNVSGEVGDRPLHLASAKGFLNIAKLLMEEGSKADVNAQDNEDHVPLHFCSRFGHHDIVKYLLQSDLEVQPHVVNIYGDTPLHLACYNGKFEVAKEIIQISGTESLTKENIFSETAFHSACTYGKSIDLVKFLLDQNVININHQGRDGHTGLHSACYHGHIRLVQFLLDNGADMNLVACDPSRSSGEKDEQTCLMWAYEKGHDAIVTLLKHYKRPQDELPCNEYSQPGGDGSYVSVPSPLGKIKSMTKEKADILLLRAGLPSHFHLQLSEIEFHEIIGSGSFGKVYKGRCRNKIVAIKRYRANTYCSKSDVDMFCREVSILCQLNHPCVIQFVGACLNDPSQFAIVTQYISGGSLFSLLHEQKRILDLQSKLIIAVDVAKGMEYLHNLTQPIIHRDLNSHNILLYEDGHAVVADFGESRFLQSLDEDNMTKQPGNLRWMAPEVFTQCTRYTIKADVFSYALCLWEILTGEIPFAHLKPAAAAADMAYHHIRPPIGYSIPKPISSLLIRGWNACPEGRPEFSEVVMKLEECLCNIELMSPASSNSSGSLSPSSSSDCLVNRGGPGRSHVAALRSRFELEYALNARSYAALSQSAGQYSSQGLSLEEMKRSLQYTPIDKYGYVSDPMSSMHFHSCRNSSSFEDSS
Test: Fluorescent polarization assay of compound inhibition on hTNNI3K ATP binding (Biological Assay Method I)
Details: displacement of fluorescent ligand from hTNNI3K ATP binding pocket; mean of a minimum of 2 experiments; read-out: pXC50 (the source's name) (converted)
Text: Materials: His-MBP-TEV-Full length human TNNI3K (hTNNI3K) was expressed in Baculokinase system and purified from amylase affinity column followed by Superdex200. The fluorescent ligand 5-({[2-({[3-({4-[(5-hydroxy-2-methylphenyl)amino]-2-pyrimidinyl}amino)phenyl]carbonyl}amino)ethyl]amino}carbonyl)-2-(6-hydroxy-3-oxo-3H-xanthen-9-yl)benzoic acid was used. The preparation of this fluorescent ligand is disclosed in U.S. Provisional Patent Application No. 61/237,815 filed Aug. 28, 2009, the disclosure of which is incorporated by reference herein. The other buffer components, including MgCl2 (Catalog Number M1028), Bis-Tris (Catalog Number B7535), DTT (Catalog Number D9779) and Chaps (Catalog Number C3023) were purchased from Sigma-Aldrich.
Biological Assay Method I:
A fluorescent polarization assay was used to determine does response of compound inhibition on hTNNI3K ATP binding.
Solution 1: Ten (10) mL of a 5 nM 5-({[2-({[3-({4-[(5-hydroxy-2-methylphenyl)amino]-2-pyrimidinyl}amino)phenyl]carbonyl}amino)ethyl]amino}carbonyl)-2-(6-hydroxy-3-oxo-3H-xanthen-9-yl)benzoic acid solution (Solution 1) was prepared by mixing 5 μL of 1M DTT and 80 μL of 10% (w/v) Chaps and 5 μL of a 10 μM 5-({[2-({[3-({4-[(5-hydroxy-2-methylphenyl)amino]-2-pyrimidinyl}amino)phenyl]carbonyl}amino) ethyl]amino}carbonyl)-2-(6-hydroxy-3-oxo-3H-xanthen-9-yl)benzoic acid stock solution into 9910 μL buffer (20 mM Tris, 15 mM MgCl2, pH 7.5). (Stock solution: 10 μM solution of 5-({[2-({[3-({4-[(5-hydroxy-2-methylphenyl)amino]-2-pyrimidinyl}amino)phenyl]carbonyl}amino)ethyl]amino}carbonyl)-2-(6-hydroxy-3-oxo-3H-xanthen-9-yl)benzoic acid in 100% DMSO)
Solution 2 was formed by mixing 53.8 μL of 2.6 μM hTNNI3K with a 6946.2 μL aliquot of Solution 1 (the above 5-({[2-({[3-({4-[(5-hydroxy-2-methylphenyl)amino]-2-pyrimidinyl}amino)phenyl]carbonyl}amino)ethyl]amino}carbonyl)-2-(6-hydroxy-3-oxo-3H-xanthen-9-yl)benzoic acid solution) to make up a 7 mL of mixture of hTNNI3K and 5-({[2-({[3-({4-[(5-hydroxy-2-methylphenyl)amino]-2-pyrimidinyl}amino)phenyl]carbonyl}amino)ethyl]amino}carbonyl)-2-(6-hydroxy-3-oxo-3H-xanthen-9-yl)benzoic acid (Solution 2).
Fifty (50) nL of inhibitors in DMSO (or DMSO controls) were stamped into a 384-well low volume Greiner black plate, followed by addition of 5 μL of Solution 1 to column 18 and 5 μL Solution 2 to columns 1-17 and 19-24 of the plate. The plate was then spun at 500 rpm for 30 seconds and incubated at room temperature for 60 minutes. After that, the fluorescent polarization was measured on Analyst (ex/em: 485/530 nm, Dichroic: 505). For dose response experiments, normalized data were fit by ABASE/XC50 and pXC50=(log((b−y)/(y−a)))/d−log(x), where x is the compound concentration and y is the % activity at specified compound concentration, a is the minimum % activity, b is the maximum % activity, and d is the Hill slope.
The pXC50s are averaged to determine a mean value, for a minimum of 2 experiments.

IC50 | Structure (SMILES)
10 to 100 nM | CNS(=O)(=O)c1ccc(SC)c(Nc2ncnc3cc(OC)cc(OC)c23)c1 [Example 53, 3-{[5,7-bis(methyloxy)-4-quinazolinyl]amino}-N-methyl-4-(methylthio) benzenesulfonamide hydrochloride]
10 to 100 nM | CNS(=O)(=O)c1ccc(OCC(F)(F)F)c(Nc2ncnc3cc(OC)c(OC)cc23)c1 [Example 11, 3-{[6,7-bis(methyloxy)-4-quinazolinyl]amino}-N-methyl-4-[(2,2,2-trifluoroethyl)oxy]benzenesulfonamide hydrochloride]
10 to 100 nM | CNS(=O)(=O)c1cc(Nc2ncnc3cc(OC)cc(OC)c23)c(OCC(F)(F)F)cc1F [Example 50, 5-{[5,7-bis(methyloxy)-4-quinazolinyl]amino}-2-fluoro-N-methyl-4-[(2,2,2-trifluoroethyl)oxy] benzenesulfonamide trifluoroacetate]
10 to 100 nM | CNS(=O)(=O)c1ccc(OCC(F)(F)F)c(Nc2ncnc3cc(OCCOC)c(OC)cc23)c1 [Example 81, 3-[6-methoxy-7-(2-methoxy-ethoxy)-quinazolin-4-ylamino]-N-methyl-4-(2,2,2-trifluoro-ethoxy)-benzenesulfonamide trifluoroacetate]
10 to 100 nM | CNS(=O)(=O)c1ccc(N2CCC(F)(F)CC2)c(Nc2ncnc3cc(OC)c(OC)cc23)c1 [Example 14, 3-{[6,7-bis(methyloxy)-4-quinazolinyl]amino}-4-(4,4-difluoro-1-piperidinyl)-N-methylbenzenesulfonamide trifluoroacetate]
10 to 100 nM | CNS(=O)(=O)c1cc(Nc2ncnc3cc(OC)c(OC)c(OC)c23)c(OCC(F)(F)F)cc1F [Example 58, 2-fluoro-N-methyl-4-[(2,2,2-trifluoroethyl)oxy]-5-{[5,6,7-tris(methyloxy)-4-quinazolinyl]amino}benzene sulfonamide trifluoroacetate]
10 to 100 nM | CNS(=O)(=O)c1ccc(N(C)C)c(Nc2ncnc3ccc(OC)cc23)c1 [Example 10, 4-(dimethylamino)-N-methyl-3-{[6-(methyloxy)-4-quinazolinyl]amino}benzene sulfonamide trifluoroacetate]
1 to 10 nM | CNS(=O)(=O)c1ccc(N(C)C)c(Nc2ncnc3cc(OCCCOC)ccc23)c1 [Example 76, 4-(dimethylamino)-N-methyl-3-[(7-{[3-(methyloxy)propyl]oxy}-4-quinazolinyl)amino] benzenesulfonamide]
10 to 100 nM | CNS(=O)(=O)c1ccc(N2CCOCC2)c(Nc2ncnc3cc(OC)cc(OC)c23)c1 [Example 40, 3-{[5,7-bis(methyloxy)-4-quinazolinyl]amino}-N-methyl-4-(4-morpholinyl) benzenesulfonamide hydrochloride]
10 to 100 nM | CNS(=O)(=O)c1ccc(SC)c(Nc2ncnc3cc(OCCOC)c(OCCOC)cc23)c1 [Example 20, 3-[(6,7-bis{[2-(methyloxy)ethyl]oxy}-4-quinazolinyl)amino]-N-methyl-4-(methylthio) benzenesulfonamide]

Continued, compound first:

Structure (SMILES) | IC50
CNS(=O)(=O)c1ccc(N2CCCCC2)c(Nc2ncnc3cc(OC)c(OC)cc23)c1 [Example 25, 3-{[6,7-bis(methyloxy)-4-quinazolinyl]amino}-N-methyl-4-(1-piperidinyl) benzenesulfonamide trifluoroacetate] | 1 to 10 nM
CNS(=O)(=O)c1ccc(N(C)C)c(Nc2ncnc3ccc(N)cc23)c1 [Example 84, 3-((6-aminoquinazolin-4-yl)amino)-4-(dimethylamino)-N-methylbenzenesulfonamide] | 10 to 100 nM
CNS(=O)(=O)c1ccc(OC(C)C)c(Nc2ncnc3cc(OC)c(OC)cc23)c1 [Example 5, 3-{[6,7-bis(methyloxy)-4-quinazolinyl]amino}-N-methyl-4-[(1-methylethyl)oxy]benzenesulfonamide] | 10 to 100 nM
CNS(=O)(=O)c1ccc(OC(F)(F)F)c(Nc2ncnc3cc(OC)c(OC)c(OC)c23)c1 [Example 55, N-methyl-4-[(trifluoromethyl)oxy]-3-{[5,6,7-tris(methyloxy)-4-quinazolinyl]amino}benzene sulfonamide trifluoroacetate] | 10 to 100 nM
CNS(=O)(=O)c1ccc(OCC(F)(F)F)c(Nc2ncnc3cc(OCCCN4CCOCC4)ccc23)c1 [Example 74, N-methyl-3-[(7-{[3-(4-morpholinyl)propyl]oxy}-4-quinazolinyl)amino]-4-[(2,2,2-trifluoroethyl)oxy] benzenesulfonamide trifluoroacetate] | 10 to 100 nM
CNS(=O)(=O)c1cccc(Nc2ncnc3cc(OC)cc(OC)c23)c1 [Example 30, 3-{[5,7-bis(methyloxy)-4-quinazolinyl]amino}-N-methylbenzenesulfonamide hydrochloride] | 10 to 100 nM
CNS(=O)(=O)c1ccc(OC(C)C(F)(F)F)c(Nc2ncnc3cc(OC)c(OC)cc23)c1 (stereo not shown) [Example 69, 3-{[6,7-bis(methyloxy)-4-quinazolinyl]amino}-N-methyl-4-[(2,2,2-trifluoro-1-methylethyl)oxy] benzenesulfonamide] | 10 to 100 nM
CNS(=O)(=O)c1ccc(OC(C)C(F)(F)F)c(Nc2ncnc3cc(OC)cc(OC)c23)c1 (single isomer, unassigned) [Example 82, 3-{[5,7-bis(methyloxy)-4-quinazolinyl]amino}-N-methyl-4-[(2,2,2-trifluoro-1-methylethyl)oxy]benzenesulfonamide hydrochloride] | 1 to 10 nM
CNS(=O)(=O)c1ccc(N2CCOCC2)c(Nc2ncnc3cc(OC)c(OC)cc23)c1 [Example 3, 3-{[6,7-bis(methyloxy)-4-quinazolinyl]amino}-N-methyl-4-(4-morpholinyl)benzenesulfonamide trifluoroacetate] | 10 to 100 nM and ~79.4 nM
CCOc1cc(OC)cc2ncnc(Nc3cc(S(=O)(=O)NC)ccc3OC(F)(F)F)c12 [Example 64, 3-{[5-(ethyloxy)-7-(methyloxy)-4-quinazolinyl]amino}-N-methyl-4-[(trifluoromethyl)oxy] benzenesulfonamide] | 10 to 100 nM
CNS(=O)(=O)c1ccc(OC)c(Nc2ncnc3cc(OCCOC)c(OCCOC)cc23)c1 [Example 18, 3-[(6,7-bis{[2-(methyloxy)ethyl]oxy}-4-quinazolinyl)amino]-N-methyl-4-(methyloxy) benzenesulfonamide hydrochloride] | 10 to 100 nM
CNc1ccc2ncnc(Nc3cc(S(=O)(=O)NC)ccc3N(C)C)c2c1 [Example 87, 4-(dimethylamino)-N-methyl-3-((6-(methylamino)quinazolin-4-yl)amino)benzenesulfonamide bis(trifluoroacetate)] | 10 to 100 nM
